As usually defined, the EC50 is the concentration at which the effect is half-maximal. A word on the mortality: it is the share of the test organisms that died.

Like-named read-outs stand apart in the source and are kept apart here.

Twelve molecules from patent US12435083B2, “Cyclopropyl-(hetero)aryl-substituted ethylsulphonyl-pyridine derivatives” (BOEHRINGER INGELHEIM VETMEDICA GMBH, priority 2021, dated 2025) can be followed below.

For assay [1], the system named is Myzus persicae. The assay can be described thus: Insecticidal test on Myzus persicae (foliar application on potted Chinese cabbage). The conditions noted are these: 144 h, read-out: control efficacy level (control rate), Myzus persicae. The text has this:
Example 14: Insecticidal Test on Myzus persicae
The compounds of formula (I) of the present invention or salts thereof were separately dispersed in water and diluted to 500 ppm. Chinese cabbage plants were planted in plastic pots (diameter: 8 cm, height: 8 cm). Aphids (Myzus persicae) were propagated on the plants and then the number of surviving aphids was counted. The dispersion was applied to the foliage of the potted plants. After the plants were air dried, these were kept in a greenhouse. 6 days after the application, the number of the alive insects was counted on the plants. The control rate was calculated according to the following formula and the control efficacy was evaluated according to the following criteria. Control rate (%)=100−{(T×Ca)/(Ta×C)}×100 • Ta: the number of alive insects before the foliar application in a treated plot • T: the number of alive insects after the foliar application in a treated plot • Ca: the number of alive insects before the foliar application in an untreated plot • C: the number of alive insects after the foliar application in an untreated plot • A: the control rate is 100% • B: the control rate is 90 to 99% • C: the control rate is 80 to 89% • D: the control rate is 50 to 79%

Assay [2] deals with adult Rhipicephalus sanguineus ticks. The assay is described as follows: Contact activity against adult Rhipicephalus sanguineus (coated vial, mortality at 48 h). The conditions noted are these: Rhipicephalus sanguineus. In a few lines: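 Compound in acetone/0.02% Triton X-100 coated onto glass vial walls and cap filter paper; after drying, ten adult ticks added per vial. Held at 24° C, 95% relative humidity, 12 h light/dark cycle. Mortality scored visually at 48 hours; EC50 derived from a dose-response series.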

Assay [3] deals with Laodelphax striatellus 3rd-instar nymphs. The assay is described as follows: Insecticidal test on Laodelphax striatellus (rice seedling dip). The following applies: 192 h, 500 ppm, seedling dip, 8 days after inoculation, read-out: activity level (corrected mortality rate), Laodelphax striatellus. The procedure:
Example 13: Insecticidal Test on Laodelphax striatellus
The compounds of formula (I) of the present invention or salts thereof were separately dispersed in water and diluted to 500 ppm. Rice plant seedlings were dipped in the dispersion for about 30 seconds. After air dried, the seedlings were put into a separate glass test tube and inoculated with ten 3rd-instar nymphs of Laodelphax striatellus and then the glass test tube was kept in a room at 25° C. 8 days after the inoculation, the numbers of the dead and alive insects were counted. The corrected mortality rate was calculated according to the following formula and the insecticidal activity was evaluated according to the following criteria. Corrected mortality rate (%)=100×(Survival rate in an untreated plot−Survival rate in a treated plot)/Survival rate in an untreated plot • A: the corrected mortality rate is 100% • B: the corrected mortality rate is 90 to 99% • C: the corrected mortality rate is 80 to 89% • D: the corrected mortality rate is 50 to 79%

Assay [4] relates to Plutella xylostella. The assay is described as follows: Insecticidal test on Plutella xylostella (Chinese cabbage seedling dip). The following applies: 144 h, 500 ppm, seedling dip, 6 days after dip treatment, read-out: activity level (corrected mortality rate), Plutella xylostella. Put shortly:
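Compounds dispersed in water at 500 ppm; Chinese cabbage seedlings bearing eggs laid by released adults over 2 days were dipped ~30 s, air-dried and kept at 25° C. Dead and live insects counted 6 days later; corrected mortality versus untreated plot scored A (100%), B (90–99%), C (80–89%), D (50–79%).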

For assay [5], the system named is adult Ctenocephalides felis fleas. The assay can be described thus: Ingestion activity (flea membrane feeding, blood feeding) against adult Ctenocephalides felis. The conditions noted are these: Ctenocephalides felis.
In assay [6] the test system is Spodoptera litura 2nd-instar larvae. The assay can be described thus: Insecticidal test on Spodoptera litura (cabbage leaf dip). The conditions noted are these: foliar, 192 h, 8 days after inoculation, read-out: activity level (corrected mortality rate), Spodoptera litura. The procedure: Example 11: Insecticidal Test on Spodoptera litura
The compounds of formula (I) of the present invention or salts thereof were separately dispersed in water and diluted to 500 ppm. Cabbage leaves were dipped in the dispersion for about 30 seconds. After air dried, the leaves were placed in a plastic Petri dish with a diameter of 9 cm and inoculated with ten 2nd-instar larvae of Spodoptera litura, after which the dish was closed and then allowed to stand in a room at 25° C. 8 days after the inoculation, the numbers of the dead and alive insects were counted. The corrected mortality rate was calculated according to the following formula and the insecticidal activity was evaluated according to the following criteria. Corrected mortality rate (%)=100×(Survival rate in an untreated plot−Survival rate in a treated plot)/Survival rate in an untreated plot • A: the corrected mortality rate is 100% • B: the corrected mortality rate is 90 to 99% • C: the corrected mortality rate is 80 to 89% • D: the corrected mortality rate is 50 to 79%

For assay [7], the system named is Aedes aegypti L1 larvae. The assay is described as follows: Activity against larvae of Aedes aegypti (L1 larvae, 384-well, image-based mortality). The conditions noted are these: read-out: EC50 (percentage of mortality, A. aegypti L1 larvae). How it is done:
Example 3: Screening Method to Test Activity of Compounds of Formula (I) Against Larvae of Aedes aegypti
Eight A. aegypti L1 larvae in a total volume of 64 μL water were added to 384-well microplates containing compounds formulated in 100% DMSO. The plates were incubated for 48 h at 27° C. Individual well images were acquired and analyzed using a pipeline to quantitatively assess the amount of larvae biomass accumulating at the bottom of the well. The efficacy of a compound at a given dose is expressed as “percentage of mortality” and determined by comparison to average biomass descriptors of positive and negative control wells containing 1.0 μM Fipronil or DMSO only, respectively. Dose response assay were conducted to determine an EC50 value.

Assay [8] has as its system adult Ctenocephalides felis fleas. The assay is described as follows: Contact activity against adult Ctenocephalides felis (treated surface, motility by machine vision, 24 h). The conditions noted are these: treated surface, 24h, read-out: EC80 (% motility reduction, adult C. felis, contact). The text has this:
Example 7: Screening Method to Test Contact Activity of Compounds of Formula (I) Against Adult Ctenocephalides felis

Setting [9] is: 500 ppm, foliar application, 6 days after application.
Setting [10] is: bovine blood, 24h post treatment, read-out: EC80 (% motility reduction, adult C. felis, ingestion via membrane feeding).
[11] abbreviates: 48 hours post-treatment, coated vial, read-out: EC50 (percentage mortality, adult R. sanguineus, contact).
Setting [12] is: contact assay, >100 μM = not active at the top concentration, read-out: R. sanguineus contact activity EC50.
Where [13] appears, read: 24 h, flea membrane feeding (ingestion, blood feeding) assay, EC80, read-out: C. felis membrane feeding (ingestion/blood feeding) activity EC80.

As for `CCS(=O)(=O)c1cc(-c2cc(C3CC3)ccn2)cnc1-c1nc2cc(C(F)(F)C(F)(F)F)cnc2n1C` [Compound 182, 4-cyclopropyl-5′-(ethanesulfonyl)-6′-[3-methyl-6-(1,1,2,2,2-pentafluoroethyl)-3H-imidazo[4,5-b]pyridin-2-yl]-2,3′-bipyridine], the pest or weed control at 500 ppm in assay [1] (foliar) worked out at 100%. Also, the EC50 in assay [2] (48 h, read-out: EC50 (percentage mortality, adult R. sanguineus, contact)) was 10 to 100 µM. Moreover, the mortality at 500 ppm in assay [3], in assay [4] and in assay [6] was 100% each time. Besides, in assay [5] (24 h, read-out: EC80 (% motility reduction, adult C. felis, ingestion via membrane feeding)), the EC80 is less than 1 µM.
As for `CCS(=O)(=O)c1cc(-c2ccc(C3CC3)cc2)cnc1-c1nc2cc([S+]([O-])C(F)(F)F)ccc2n1C` (stereo not drawn) [Compound 43, 2-[5-(4-cyclopropylphenyl)-3-(ethanesulfonyl)pyridin-2-yl]-1-methyl-5-trifluoromethanesulfinyl-1,3-benzodiazole], the pest or weed control at 500 ppm in assay [1] (setting [9]) was 100%. Besides, the EC50 in assay [7] (48 h at 27° C., 384-well) was less than 0.04 µM. Also, the EC80 in assay [8] and in assay [5] (setting [10]) was 1 to 10 µM each time. In addition, the mortality at 500 ppm in assay [4] and in assay [6] was 100% each time.
As for `CCS(=O)(=O)c1cc(-c2ccc(C3CC3)cc2)cnc1-c1cc2n(CC3CC3)cc(C(F)(F)F)cc-2n1` [Compound 96, 2-[4-(cyclopropylmethyl)-6-(trifluoromethyl)pyrrolo[3,2-b]pyridin-2-yl]-5-(4-cyclopropylphenyl)-3-(ethanesulfonyl)pyridine], in assay [1] (setting [9]), the pest or weed control at 500 ppm is 100%. In addition, the EC50 in assay [2] (setting [11]) was less than 10 µM; in assay [2] (setting [12]), 10 to 100 µM. Besides, the mortality at 500 ppm in assay [3], in assay [4] and in assay [6] was 100% throughout. The EC80 in assay [5] (setting [13]) lay in the range of 1 to 10 µM.
As to `CCS(=O)(=O)c1cc(-c2cccc(C3CC3)n2)cnc1-c1nc2cc(C(F)(F)C(F)(F)F)nnc2n1C` [Compound 3, 6-cyclopropyl-5′-(ethanesulfonyl)-6′-[7-methyl-3-(1,1,2,2,2-pentafluoroethyl)imidazo[4,5-c]pyridazin-6-yl]-2,3′-bipyridine], the pest or weed control at 500 ppm in assay [1] (foliar) turned out to be 100%. In addition, the EC50 in assay [7] (48 h) was less than 0.04 µM. Further, the mortality at 500 ppm in assay [3], in assay [4] and in assay [6] was 100% in each case.
Regarding `CCS(=O)(=O)c1cc(-c2cccc(C3CC3)n2)cnc1-c1nc2cc(C(F)(F)C(F)(F)F)cnc2n1C` [compound 112], the pest or weed control at 500 ppm in assay [1] (setting [9]) is 100%. In addition, the EC50 was 10 to 100 µM in assay [2] (setting [11]); 10 to 100 µM in assay [2] (setting [12]); less than 0.04 µM in assay [7] (48 h at 27° C., 384-well). For the same molecule, the EC80 was less than 1 µM in assay [8], 1 to 10 µM in assay [5] (setting [13]) and 1 to 10 µM in assay [5] (setting [10]). Besides, the mortality at 500 ppm in assay [4] and in assay [6] was 100% each time.
For the molecule `CCS(=O)(=O)c1cc(-c2ccc(C3CC3)nc2)cnc1-c1ccc(OCC(F)(F)C(F)(F)F)cn1` [Compound 123, 6′-cyclopropyl-5-(ethanesulfonyl)-6-[5-(2,2,3,3,3-pentafluoropropoxy)pyridin-2-yl]-3,3′-bipyridine], the pest or weed control at 500 ppm in assay [1] (foliar) is 100%. Besides, the mortality at 500 ppm in assay [3], in assay [4] and in assay [6] was 100% each time.
For the molecule `CCS(=O)(=O)c1cc(-c2nccc(C3CC3)n2)cnc1-c1nc2cc(C(F)(F)C(F)(F)F)nnc2n1C` [compound 143], the mortality at 500 ppm in assay [3], in assay [4] and in assay [6] was 100% throughout. The EC80 in assay [8] and in assay [5] (setting [10]) was less than 1 µM throughout.
In the case of `CCS(=O)(=O)c1cc(-c2ccc(C3CC3)cc2)cnc1-c1nc2cc(C(F)(F)F)n(C3CC3)c(=O)c2n1C` [Compound 45, 5-cyclopropyl-2-[5-(4-cyclopropylphenyl)-3-(ethanesulfonyl)pyridin-2-yl]-3-methyl-6-(trifluoromethyl)imidazo[4,5-c]pyridin-4-one], the pest or weed control at 500 ppm in assay [1] (setting [9]) came to 100%. Further, the EC50 in assay [2] (setting [11]) is less than 10 µM; in assay [2] (setting [12]), less than 10 µM; in assay [7] (48 h at 27° C., 384-well) it was less than 0.04 µM. The mortality at 500 ppm in assay [3], in assay [4] and in assay [6] was 100% throughout. The EC80 in assay [5] (setting [13]) and in assay [5] (setting [10]) was 1 to 10 µM throughout.
Turning to `CCS(=O)(=O)c1cc(-c2ccc(C3CC3)cc2)cnc1-c1nc2cc(S(=O)(=O)C(F)(F)F)ccc2n1C` [Compound 42, 2-[5-(4-cyclopropylphenyl)-3-(ethanesulfonyl)pyridin-2-yl]-1-methyl-5-trifluoromethanesulfonyl-1,3-benzodiazole], in assay [7] (48 h at 27° C., 384-well), the EC50 is less than 0.04 µM. Also, the EC80 in assay [8] and in assay [5] (setting [10]) was 1 to 10 µM each time. In addition, the mortality at 500 ppm in assay [4] and in assay [6] was 100% each time.
Consider `CCS(=O)(=O)c1cc(-c2ccc(C3CC3)cc2)cnc1-c1nc2cc(C(C)(F)F)cnc2n1C` [Compound 194, 5-(4-cyclopropylphenyl)-2-[6-(1,1-difluoroethyl)-3-methylimidazo[4,5-b]pyridin-2-yl]-3-(ethanesulfonyl)pyridine], for which the pest or weed control at 500 ppm in assay [1] (setting [9]) was determined as 100%. Also, in assay [2] (setting [11]), the EC50 was 10 to 100 µM. The mortality at 500 ppm in assay [3], in assay [4] and in assay [6] was 100% throughout.
`CCS(=O)(=O)c1cc(-c2ccc(C3(C(F)(F)F)CC3)cc2)cnc1-c1nc2cc3c(cc2n1C)OC(F)(F)O3` [compound 129]: the mortality at 500 ppm in assay [3], in assay [4] and in assay [6] was 100% each time. Moreover, the EC80 in assay [8] and in assay [5] (setting [10]) was 1 to 10 µM each time.
In the case of `CCS(=O)(=O)c1cc(-c2ccc(C3(C#N)CC3)cc2)cnc1-c1ccc(OCC(F)(F)C(F)(F)F)cn1` [compound 128], the pest or weed control at 500 ppm in assay [1] (setting [9]) came out at 100%. In assay [2] (setting [11]), the EC50 is less than 10 µM. In addition, the mortality at 500 ppm in assay [3], in assay [4] and in assay [6] was 100% in each case. Moreover, the EC80 in assay [8] is 1 to 10 µM.
